# Source: the supplement of paper PMC10307832
# Columns and labels:
# Experiment in all cases: relative viability (nuclei count vs DMSO), 5 days (fraction); higher = more cells survive
# [1] = compound: COc1cc(-c2nn([C@H]3CC[C@H](N4CCN(C(C)=O)CC4)CC3)c3ncnc(N)c23)ccc1NC(=O)c1cc2ccccc2n1C + CS(=O)(=O)N1CCN(Cc2cc3nc(-c4cccc5[nH]ncc45)nc(N4CCOCC4)c3s2)CC1 [Pictilisib] (partner 1 µM)
# Outline: (§1)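 A single step with final 0.05% Triton X-100, 1% formaldehyde and 1 ug/ml Hoechst fixed the cells and stained nuclei 5 days after treatment. Lung cancer cell lines in 1536-well plates had been treated by pin tool the day after seeding with one drug alone or a fixed anchor-drug dose plus five library-drug doses (not always all listed) in √10 steps, and nuclei were counted on 4× images. Relative viability is the ratio of nuclei in treated wells to nuclei in vehicle wells, taken as the median of duplicate plates.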
# [2] = compound: COc1cc(-c2nn([C@H]3CC[C@H](N4CCN(C(C)=O)CC4)CC3)c3ncnc(N)c23)ccc1NC(=O)c1cc2ccccc2n1C + CC(=O)Nc1cccc(-n2c(=O)n(C3CC3)c(=O)c3c(Nc4ccc(I)cc4F)n(C)c(=O)c(C)c32)c1 [Trametinib] (partner 0.02 µM)
# Outline: as §1
# [3] = compound: COc1cc(-c2nn([C@H]3CC[C@H](N4CCN(C(C)=O)CC4)CC3)c3ncnc(N)c23)ccc1NC(=O)c1cc2ccccc2n1C + Cc1cc(Nc2cc(N3CCN(C)CC3)nc(Sc3ccc(NC(=O)C4CC4)cc3)n2)n[nH]1 [Tozasertib] (partner 0.1 µM)
# Outline: as §1
# [4] = compound: COc1cc(-c2nn([C@H]3CC[C@H](N4CCN(C(C)=O)CC4)CC3)c3ncnc(N)c23)ccc1NC(=O)c1cc2ccccc2n1C + O=C(CCCCCCC(=O)Nc1ccccc1)NO [Vorinostat] (partner 1 µM)
# Outline: as §1
# [5] = compound: CO[C@@H]1[C@H](N(C)C(=O)c2ccccc2)C[C@H]2O[C@]1(C)n1c3ccccc3c3c4c(c5c6ccccc6n2c5c31)C(=O)NC4 [Midostaurin] + N=C(N)NC(=N)NCCc1ccccc1 [Phenformin] (partner 250 µM)
# Outline: as §1
Cell Line,relative viability ([1]; first compound 0.0128 µM),relative viability ([1]; first compound 0.04048 µM),relative viability ([1]; first compound 0.128 µM),relative viability ([1]; first compound 1.28 µM),relative viability ([2]; first compound 0.0128 µM),relative viability ([2]; first compound 0.04048 µM),relative viability ([2]; first compound 0.128 µM),relative viability ([2]; first compound 1.28 µM),relative viability ([3]; first compound 0.0128 µM),relative viability ([3]; first compound 0.04048 µM),relative viability ([3]; first compound 0.128 µM),relative viability ([3]; first compound 1.28 µM),relative viability ([4]; first compound 0.0128 µM),relative viability ([4]; first compound 0.04048 µM),relative viability ([4]; first compound 0.128 µM),relative viability ([4]; first compound 1.28 µM),relative viability ([5]; first compound 0.01 µM),relative viability ([5]; first compound 0.03162 µM),relative viability ([5]; first compound 0.1 µM),relative viability ([5]; first compound 0.3162 µM)
NCI-H1650,0.548,0.651,0.513,0.547,0.489,0.448,0.586,0.452,0.36,0.374,0.351,0.2,0.575,0.829,0.663,0.578,0.408,0.498,0.413,0.302
NCI-H1651,0.489,0.525,0.483,0.43,0.843,0.832,0.79,0.771,0.616,0.769,0.635,0.37,0.571,0.618,0.545,0.495,0.377,0.4,0.327,0.299
NCI-H1666,0.521,0.367,0.394,0.397,0.899,0.835,0.819,0.918,0.619,0.67,0.593,0.587,1.14,0.938,1.13,1.14,0.496,0.537,0.546,0.537
NCI-H1734,0.47,0.38,0.481,0.362,0.721,0.445,0.664,0.598,0.293,0.234,0.253,0.201,0.873,0.787,0.783,0.852,0.421,0.354,0.453,0.366
NCI-H1755,0.509,0.169,0.402,0.299,0.907,0.651,0.769,0.745,0.617,0.604,0.534,0.546,1,0.945,0.721,0.951,0.631,0.621,0.609,0.592
NCI-H1793,0.424,0.288,0.285,0.311,0.446,0.24,0.469,0.359,0.367,0.343,0.228,0.126,0.981,0.658,0.794,0.528,0.444,0.325,0.36,0.26
NCI-H1915,0.968,0.532,0.939,0.879,0.333,0.141,0.301,0.241,0.443,0.44,0.384,0.317,0.651,0.577,0.507,0.44,0.35,0.348,0.352,0.352
NCI-H1944,0.362,0.301,0.327,0.285,0.455,0.274,0.393,0.295,0.265,0.257,0.24,0.196,0.654,0.641,0.578,0.416,0.217,0.196,0.239,0.235
NCI-H1975,0.322,0.31,0.234,0.149,0.328,0.293,0.349,0.207,0.868,0.896,0.528,0.159,0.724,0.735,0.624,0.41,0.425,0.418,0.39,0.397
NCI-H1993,0.845,0.899,0.826,0.775,0.504,0.489,0.562,0.481,0.568,0.534,0.56,0.546,0.916,0.682,0.957,0.726,0.476,0.498,0.477,0.508
NCI-H2009,0.783,0.303,0.649,0.578,0.251,0.252,0.236,0.195,0.743,0.734,0.681,0.606,0.711,0.702,0.78,0.751,0.428,0.464,0.48,0.372
NCI-H2023,0.277,0.188,0.212,0.22,0.402,0.445,0.585,0.454,0.381,0.309,0.179,0.199,0.821,0.631,0.646,0.695,0.448,0.432,0.4,0.285
NCI-H2085,0.532,0.484,0.381,0.458,0.611,0.643,0.405,0.334,0.827,0.867,0.728,0.372,0.83,1.17,0.764,0.759,0.718,0.627,0.749,0.583
NCI-H2087,1.06,0.399,0.842,0.753,0.209,–,0.207,0.17,0.221,–,0.216,0.194,0.745,–,0.798,0.987,0.457,0.474,0.445,0.399
NCI-H2126,0.567,0.434,0.48,0.438,0.55,0.497,0.508,0.448,0.833,0.946,0.773,0.638,0.92,0.621,0.658,0.636,0.519,0.467,0.565,0.564
